Assay results reported in ChEMBL document CHEMBL2163283, “Design and synthesis of novel stiripentol analogues as potential anticonvulsants” (Eur J Med Chem, 2012).
The source made the active and inactive calls. The rule behind the calls is not given here.

Legend:
Mus musculus [1] = experiment: Anticonvulsant activity in Swiss albino mouse assessed as protection against subcutaneous pentylenetetrazol-induced seizures at 370 umol/kg, ip administered 30 mins before pentylenetetrazole challenge measured after 30 mins; type: functional
Mus musculus [2] = experiment: Anticonvulsant activity in Swiss albino mouse assessed as protection against subcutaneous pentylenetetrazol-induced seizures at 370 umol/kg, ip administered 30 mins before pentylenetetrazole challenge measured after 30 mins relative to stiripentol; type: functional
Mus musculus [3] = experiment: Anticonvulsant activity in Swiss albino mouse assessed as maximal electroshock-induced seizures at 370 umol/kg, ip administered 30 mins before electroshock challenge; type: functional, organism-based
Mus musculus [4] = experiment: Anticonvulsant activity in Swiss albino mouse assessed as protection against subcutaneous pentylenetetrazol-induced seizures at 390 umol/kg, ip administered 30 mins before pentylenetetrazole challenge measured after 30 mins; type: functional
Mus musculus [5] = experiment: Anticonvulsant activity in Swiss albino mouse assessed as protection against subcutaneous pentylenetetrazol-induced seizures at 390 umol/kg, ip administered 30 mins before pentylenetetrazole challenge measured after 30 mins relative to stiripentol; type: functional
Mus musculus [6] = experiment: Anticonvulsant activity in Swiss albino mouse assessed as maximal electroshock-induced seizures at 390 umol/kg, ip administered 30 mins before electroshock challenge; type: functional, organism-based
Mus musculus [7] = experiment: Anticonvulsant activity in Swiss albino mouse assessed as protection against subcutaneous pentylenetetrazol-induced seizures at 340 umol/kg, ip administered 30 mins before pentylenetetrazole challenge measured after 30 mins; type: functional
Mus musculus [8] = experiment: Anticonvulsant activity in Swiss albino mouse assessed as protection against subcutaneous pentylenetetrazol-induced seizures at 340 umol/kg, ip administered 30 mins before pentylenetetrazole challenge measured after 30 mins relative to stiripentol; type: functional
Mus musculus [9] = experiment: Anticonvulsant activity in Swiss albino mouse assessed as maximal electroshock-induced seizures at 340 umol/kg, ip administered 30 mins before electroshock challenge; type: functional
Mus musculus [10] = experiment: Anticonvulsant activity in Swiss albino mouse assessed as protection against subcutaneous pentylenetetrazol-induced seizures at 346 umol/kg, ip administered 30 mins before pentylenetetrazole challenge measured after 30 mins; type: functional
Mus musculus [11] = experiment: Anticonvulsant activity in Swiss albino mouse assessed as protection against subcutaneous pentylenetetrazol-induced seizures at 346 umol/kg, ip administered 30 mins before pentylenetetrazole challenge measured after 30 mins relative to stiripentol; type: functional
Mus musculus [12] = experiment: Anticonvulsant activity in Swiss albino mouse assessed as maximal electroshock-induced seizures at 346 umol/kg, ip administered 30 mins before electroshock challenge; type: functional
Mus musculus [13] = experiment: Anticonvulsant activity in Swiss albino mouse assessed as protection against subcutaneous pentylenetetrazol-induced seizures at 420 umol/kg, ip administered 30 mins before pentylenetetrazole challenge measured after 30 mins; type: functional
Mus musculus [14] = experiment: Anticonvulsant activity in Swiss albino mouse assessed as protection against subcutaneous pentylenetetrazol-induced seizures at 420 umol/kg, ip administered 30 mins before pentylenetetrazole challenge measured after 30 mins relative to stiripentol; type: functional
Mus musculus [15] = experiment: Anticonvulsant activity in Swiss albino mouse assessed as maximal electroshock-induced seizures at 420 umol/kg, ip administered 30 mins before electroshock challenge; type: functional, organism-based
Mus musculus [16] = experiment: Anticonvulsant activity in Swiss albino mouse assessed as protection against subcutaneous pentylenetetrazol-induced seizures at 350 umol/kg, ip administered 30 mins before pentylenetetrazole challenge measured after 30 mins; type: functional
Mus musculus [17] = experiment: Anticonvulsant activity in Swiss albino mouse assessed as protection against subcutaneous pentylenetetrazol-induced seizures at 350 umol/kg, ip administered 30 mins before pentylenetetrazole challenge measured after 30 mins relative to stiripentol; type: functional
Mus musculus [18] = experiment: Anticonvulsant activity in Swiss albino mouse assessed as maximal electroshock-induced seizures at 350 umol/kg, ip administered 30 mins before electroshock challenge; type: functional
Mus musculus [19] = experiment: Anticonvulsant activity in ip dosed Swiss albino mouse assessed as protection against subcutaneous pentylenetetrazol-induced seizures administered 30 mins before pentylenetetrazole challenge measured after 30 mins; type: functional
Mus musculus [20] = experiment: Neurotoxicity in Swiss albino mouse assessed as effect on hindlimb grip strength at 350 umol/kg, sc administered measured every 15 mins for 2 hrs; type: toxicity, organism-based; conditions: in vivo
Mus musculus [21] = experiment: Neurotoxicity in Swiss albino mouse assessed as climbing response to inverted mesh at 350 umol/kg, sc administered measured every 15 mins for 2 hrs by wire mesh grasping test; type: toxicity, organism-based; conditions: in vivo
Mus musculus [22] = experiment: Anticonvulsant activity in Swiss albino mouse assessed as protection against subcutaneous pentylenetetrazol-induced seizures at 410 umol/kg, ip administered 30 mins before pentylenetetrazole challenge measured after 30 mins relative to stiripentol; type: functional
Mus musculus [23] = experiment: Anticonvulsant activity in Swiss albino mouse assessed as protection against subcutaneous pentylenetetrazol-induced seizures at 410 umol/kg, ip administered 30 mins before pentylenetetrazole challenge measured after 30 mins; type: functional
Mus musculus [24] = experiment: Anticonvulsant activity in Swiss albino mouse assessed as maximal electroshock-induced seizures at 410 umol/kg, ip administered 30 mins before electroshock challenge; type: functional
Mus musculus [25] = experiment: Anticonvulsant activity in Swiss albino mouse assessed as protection against subcutaneous pentylenetetrazol-induced seizures at 108 umol/kg, ip administered 30 mins before pentylenetetrazole challenge measured after 30 mins; type: functional
Mus musculus [26] = experiment: Anticonvulsant activity in Swiss albino mouse assessed as protection against subcutaneous pentylenetetrazol-induced seizures at 159 umol/kg, ip administered 30 mins before pentylenetetrazole challenge measured after 30 mins; type: functional, organism-based
Mus musculus [27] = experiment: Anticonvulsant activity in Swiss albino mouse assessed as maximal electroshock-induced seizures at 159 umol/kg, ip administered 30 mins before electroshock challenge; type: functional
Mus musculus [28] = experiment: Anticonvulsant activity in Swiss albino mouse assessed as protection against subcutaneous pentylenetetrazol-induced seizures at 384 umol/kg, ip administered 30 mins before pentylenetetrazole challenge measured after 30 mins; type: functional
Mus musculus [29] = experiment: Anticonvulsant activity in Swiss albino mouse assessed as protection against subcutaneous pentylenetetrazol-induced seizures at 427 umol/kg, ip administered 30 mins before pentylenetetrazole challenge measured after 30 mins; type: functional
Mus musculus [30] = experiment: Anticonvulsant activity in Swiss albino mouse assessed as protection against subcutaneous pentylenetetrazol-induced seizures at 491 umol/kg, ip administered 30 mins before pentylenetetrazole challenge measured after 30 mins; type: functional
Mus musculus [31] = experiment: Anticonvulsant activity in Swiss albino mouse assessed as protection against subcutaneous pentylenetetrazol-induced seizures at 534 umol/kg, ip administered 30 mins before pentylenetetrazole challenge measured after 30 mins; type: functional
Mus musculus [32] = experiment: Anticonvulsant activity in Swiss albino mouse assessed as protection against subcutaneous pentylenetetrazol-induced seizures at 576 umol/kg, ip administered 30 mins before pentylenetetrazole challenge measured after 30 mins; type: functional
Mus musculus [33] = experiment: Anticonvulsant activity in Swiss albino mouse assessed as protection against subcutaneous pentylenetetrazol-induced seizures at 640 umol/kg, ip administered 30 mins before pentylenetetrazole challenge measured after 30 mins; type: functional
Mus musculus [34] = experiment: Anticonvulsant activity in Swiss albino mouse assessed as maximal electroshock-induced seizures at 640 umol/kg, ip administered 30 mins before electroshock challenge; type: functional
Mus musculus [35] = experiment: Anticonvulsant activity in Swiss albino mouse assessed as protection against subcutaneous pentylenetetrazol-induced seizures at 747 umol/kg, ip administered 30 mins before pentylenetetrazole challenge measured after 30 mins; type: functional
Mus musculus [36] = experiment: Anticonvulsant activity in ip dosed Swiss albino mouse assessed as maximal electroshock-induced seizures administered 30 mins before electroshock challenge; type: functional
Mus musculus [37] = experiment: Neurotoxicity in Swiss albino mouse assessed as effect on hindlimb grip strength at 747 umol/kg, sc administered measured every 15 mins for 2 hrs; type: toxicity, organism-based; conditions: in vivo
Mus musculus [38] = experiment: Neurotoxicity in Swiss albino mouse assessed as climbing response to inverted mesh at 747 umol/kg, sc administered measured every 15 mins for 2 hrs by wire mesh grasping test; type: toxicity, organism-based; conditions: in vivo

`CC(C)(C)C1=NN(C(=O)Nc2ccc(Cl)cc2)C(c2ccc3c(c2)OCO3)C1` (racemic) was tested, and the Activity (Mus musculus [1]) was 33%, the Activity (Mus musculus [2]) was 1.15% and the Activity (Mus musculus [3]) was “inactive”.

For `Cc1ccc(NC(=O)N2N=C(C(C)(C)C)CC2c2ccc3c(c2)OCO3)cc1` (racemic), the Activity (Mus musculus [4]) was 83%, the Activity (Mus musculus [5]) was 1.48 ratio to stiripentol and the Activity (Mus musculus [6]) was “inactive”.

With `Cc1ccccc1NC(=O)N1N=C(C(C)(C)C)CC1c1ccc2c(c1)OCO2` (racemic) the Activity (Mus musculus [4]) was 16%, the Activity (Mus musculus [5]) was 0.95 ratio to stiripentol and the Activity (Mus musculus [6]) was “inactive”.

In the case of `CC(C)(C)C1=NN(C(=O)Nc2ccc(Cl)cc2Cl)C(c2ccc3c(c2)OCO3)C1` (racemic), the Activity (Mus musculus [7]) is reported as 33%, the Activity (Mus musculus [8]) is reported as 1.26% and the Activity (Mus musculus [9]) is reported as “inactive”.

For `CC(C)(C)C1=NN(C(=O)Nc2ccc(F)cc2)C(c2ccc3c(c2)OCO3)C1` (racemic), the Activity (Mus musculus [4]) was 33%, the Activity (Mus musculus [5]) was 1.09 ratio to stiripentol and the Activity (Mus musculus [6]) was “inactive”.

For `CC(C)(C)C1=NN(C(N)=O)C(c2ccc3c(c2)OCO3)C1` (racemic), the Activity (Mus musculus [10]) was 16%, the Activity (Mus musculus [11]) was 1.11% and the Activity (Mus musculus [12]) was 66%.

`CC(C)(C)C1=NN(C(=O)c2ccccc2)C(c2ccc3c(c2)OCO3)C1` (racemic) was tested, and the Activity (Mus musculus [13]) was 66%, the Activity (Mus musculus [14]) was 1.27% and the Activity (Mus musculus [15]) was “inactive”.

For `CC(C)(C)C1=NN(C(=O)c2ccc(Br)cc2)C(c2ccc3c(c2)OCO3)C1` (racemic), the Activity (Mus musculus [16]) was 100%, the Activity (Mus musculus [17]) was 2.13% and the Activity (Mus musculus [18]) was 16%. The ED50 (Mus musculus [19]) was 110 mg/kg, the Activity (Mus musculus [20]) was “Non-toxic” and the Activity (Mus musculus [21]) was “Non-toxic”.

With `CC(C)(C)C1=NN(C(=O)c2ccc(Cl)cc2)C(c2ccc3c(c2)OCO3)C1` (racemic) the Activity (Mus musculus [4]) was 50%, the Activity (Mus musculus [5]) was 1.26 ratio to stiripentol and the Activity (Mus musculus [6]) was “inactive”.

Work on `Cc1ccc(C(=O)N2N=C(C(C)(C)C)CC2c2ccc3c(c2)OCO3)cc1` (racemic) yielded an Activity (Mus musculus [22]) of 1.04%, an Activity (Mus musculus [23]) of 33% and an Activity (Mus musculus [24]) of 33%.

Compound `CCC1(c2ccccc2)C(=O)NC(=O)NC1=O` [PHENOBARBITAL] has an Activity (Mus musculus [25]) of 100%.

`O=C1NC(=O)C(c2ccccc2)(c2ccccc2)N1` [PHENYTOIN] was tested, and the Activity (Mus musculus [26]) was “inactive” and the Activity (Mus musculus [27]) was 100%.

`CC(C)(C)C(O)/C=C/c1ccc2c(c1)OCO2` (stereo not drawn) [STIRIPENTOL] gave an Activity (Mus musculus [28]) of 16%, an Activity (Mus musculus [29]) of 33% and an Activity (Mus musculus [30]) of 50%. The Activity (Mus musculus [31]) was 66%, the Activity (Mus musculus [32]) was 83% and the Activity (Mus musculus [33]) was 83%. For the same compound, the Activity (Mus musculus [34]) was 66%, the Activity (Mus musculus [35]) was 100% and the ED50 (Mus musculus [19]) was 115 mg/kg. The ED50 (Mus musculus [36]) was 277 mg/kg, the Activity (Mus musculus [37]) was “Non-toxic” and the Activity (Mus musculus [38]) was “Non-toxic”.
